Reference: PMC11324126, “Novel coumarin-6-sulfonamide-chalcone hybrids as glutathione transferase P1-1 inhibitors” (PLOS ONE, 2024)
Entries after “also recorded” stand apart in the source; their conditions may differ. Like-named read-outs stand apart in the source and are kept apart here. Values belong to the molecule of their own block, whether it stands above or below them.

Legend:
[1] = biological target: T1, hGSTP1-1 (Homo sapiens, UniProt P09211); assay: hGSTP1-1 enzyme activity/inhibition assay (CDNB and GSH substrates, 340 nm); format: biochemical; design: key to Enzyme Inhibition (%) (symbol): *: Coumarin derivative 5e did not exhibit significant inhibition; conditions: for Enzyme Inhibition (%) / IC50 / inhibition at 10 µM: mean ± SE, triplicate; for IC50: concentration-response inhibition, read-out: IC50 towards hGSTP1-1; for inhibition at 10 µM: pH 6.5, 10 μM compound
T1 construct: made in house; host or cells: E. coli
Method: Determination of hGSTP1-1 activity was carried out in potassium phosphate buffer (100 mM, pH 6.5, 1 mL total volume), at 25°C using as substrates CDNB and GSH. The reaction was monitoring at 340 nm for 120 s, as described previously. For inhibition analysis, coumarin derivatives were dissolved in DMSO (100 μΜ) and added to the assay mixture at 10 μΜ final concentration. The mixture was incubated at 25°C for 1 min, prior adding the enzyme sample. The IC50 values were determined from a graph of the remaining GST activity (%) against inhibitor concentration. GraphPad Prism 9.3.1 (GraphPad Prism Software, Inc.) was used for determination of IC50 values. Kinetic inhibition analysis was performed as previously described with minor modifications. Initial velocities using CDNB as a variable substrate (typically 14–1000 μM) were determined in the presence of constant concentration of GSH (2.5 mM) in the absence and presence of the coumarin derivative 5g (0–50 μM). Initial velocities using GSH as a variable substrate (typically 37.5–3750 μΜ) were determined in the presence of 1 mM CDNB in the absence and presence of the coumarin derivative 5g (0–50 μM). Enzyme assays were performed in triplicates and initial velocities were corrected for spontaneous reaction rates.

[2] = MTT cytotoxicity assay, DU-145; format: cell-based; conditions: human, DU-145 cells, mean ± SE, triplicate, read-out: CC50 against DU-145
Method: (§1) The MTT colorimetric assay was used to evaluate the in vitro cytotoxicity of 5a, 5f and 5g coumarin derivatives against PC3, DU-145 and MCF-7 cancer cell lines. Cancer cells were inoculated into a 96-well plate (initially at a density of 8 x 10^3 cells/well in 100 μL of culture medium) and were cultivated for 24 h, at 37°C in a CO2 incubator (5%). Different concentrations of 5a, 5f and 5g derivatives (1.5 μΜ to 200 μΜ), were added to cultures and incubated for 48 h. […] The culture medium was then replaced with 100 μL of MTT solution (1 mg/mL) and after 2 h incubation, the solution was aspirated and the produced formazan crystals were dissolved in isopropanol (100 μL). The absorbance was measured at 540 nm. Dose–cell viability graphs were created using GraphPad Prism 9.3.1 and the CC50 values were determined.

[3] = MTT cytotoxicity assay, PC3; format: cell-based; conditions: human, PC3 cells, mean ± SE, triplicate, read-out: CC50 against PC3
Method: as §1

[4] = MTT cytotoxicity assay, MCF-7; format: cell-based; conditions: human, MCF-7 cells, mean ± SE, triplicate, read-out: CC50 against MCF-7
Method: as §1

[5] = biological target: T1, hGSTP1-1; design: method as in doi:10.5505/tjb.2012.30301; conditions: cited from earlier work
[6] = test system: HepG2 cells; design: method as in PMID 29944015; conditions: read-out: IC50 towards HepG2 cells; cited from earlier work
[7] = 10 μM compound, 25°C, pH 6.5, 10 µM

T1 sequence (P09211 whole entry): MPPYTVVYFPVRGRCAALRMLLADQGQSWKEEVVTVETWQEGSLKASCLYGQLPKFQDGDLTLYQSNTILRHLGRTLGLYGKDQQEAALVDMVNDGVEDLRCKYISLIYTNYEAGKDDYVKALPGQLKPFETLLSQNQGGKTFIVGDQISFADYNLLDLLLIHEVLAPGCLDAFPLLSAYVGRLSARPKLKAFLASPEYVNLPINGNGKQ

Enzyme Inhibition (%) (symbol) ([1]; 10 μM compound, 25°C, pH 6.5): *
Enzyme Inhibition (%) ([1]; 10 μM compound, 25°C, pH 6.5): no activity
SMILES: COc1cc(C=CC(=O)c2ccc(NS(=O)(=O)c3ccc4oc(=O)ccc4c3)cc2)cc(OC)c1OC [Compound 5e, 2-oxo-N-(4-(3-(3,4,5-trimethoxyphenyl)acryloyl)phenyl)-2H-chromene-6-sulfonamide]

Enzyme Inhibition (%) [1, 7]: 86.9 ± 0.0%
IC50 [1]: 12.7 ± 0.7 µM
inhibition at 10 µM ([1]; 25°C, pH 6.5): > 85%
SMILES: O=C(C=Cc1ccc(F)cc1)c1ccc(NS(=O)(=O)c2ccc3oc(=O)ccc3c2)cc1 [Compound 5f, N-(4-(3-(4-fluorophenyl)acryloyl)phenyl)-2-oxo-2H-chromene-6-sulfonamide]
CC50 at 48 h [2]: 47.3 ± 2.7 µM
CC50 at 48 h [3]: 14.7 ± 0.9 µM
CC50 at 48 h [4]: 24.7 ± 1.5 µM

Enzyme Inhibition (%) [1, 7]: 87.5 ± 0.0%
inhibition constant Ki΄ (hGSTP1-1–CDNB complex) ([1]; CDNB as variable substrate): 19.25 ± 1.20 μΜ
Ki ([1]; CDNB as variable substrate, read-out: inhibition constant Ki (free hGSTP1-1)): 4.69 ± 0.11 µM
inhibition constant Ki΄ ([1]; GSH as variable substrate): 25.39 ± 0.60 μΜ
Ki ([1]; GSH as variable substrate, read-out: inhibition constant Ki): 3.82 ± 0.16 µM
IC50 [1]: 12.2 ± 0.5 µM
inhibition at 10 µM ([1]; 25°C, pH 6.5): > 85%
SMILES: O=C(C=Cc1ccc(Cl)cc1)c1ccc(NS(=O)(=O)c2ccc3oc(=O)ccc3c2)cc1 [Compound 5g, N-(4-(3-(4-chlorophenyl)acryloyl)phenyl)-2-oxo-2H-chromene-6-sulfonamide]
type of inhibition ([1]; kinetic inhibition analysis, Lineweaver-Burk): mixed-type inhibitor; also recorded: non-competitive, purely mixed-type inhibitor
CC50 at 48 h [2]: 36.6 ± 2.7 µM
CC50 at 48 h [3]: 11.9 ± 2.5 µM
CC50 at 48 h [4]: 17.4 ± 2.9 µM

inhibition at 10 µM ([1]; 25°C, pH 6.5): 71.1 ± 0.1%
SMILES: O=C(C=Cc1ccc(Br)cc1)c1ccc(NS(=O)(=O)c2ccc3oc(=O)ccc3c2)cc1 [Compound 5h, N-(4-(3-(4-bromophenyl)acryloyl)phenyl)-2-oxo-2H-chromene-6-sulfonamide]

inhibition at 10 µM ([1]; 25°C, pH 6.5): 45.4 ± 0.1%
SMILES: O=C(C=Cc1ccc([N+](=O)[O-])cc1)c1ccc(NS(=O)(=O)c2ccc3oc(=O)ccc3c2)cc1 [Compound 5i, N-(4-(3-(4-nitrophenyl)acryloyl)phenyl)-2-oxo-2H-chromene-6-sulfonamide]

Second part, the molecule before the results:

SMILES: O=C(C=Cc1ccccc1)c1ccc(NS(=O)(=O)c2ccc3oc(=O)ccc3c2)cc1 [Compound 5a, N-(4-cinnamoylphenyl)-2-oxo-2H-chromene-6-sulfonamide]
Enzyme Inhibition (%) [1, 7]: 84.6 ± 0.1%
IC50 [1]: 16.3 µM
inhibition at 10 µM ([1]; 25°C, pH 6.5): > 85%
CC50 at 48 h [2]: 71.4 ± 5.4 µM
CC50 at 48 h [3]: 25.3 ± 2.2 µM
CC50 at 48 h [4]: 46.8 ± 5.1 µM

SMILES: Cc1ccc(C=CC(=O)c2ccc(NS(=O)(=O)c3ccc4oc(=O)ccc4c3)cc2)cc1 [Compound 5b, 2-oxo-N-(4-(3-(p-tolyl)acryloyl)phenyl)-2H-chromene-6-sulfonamide]
inhibition at 10 µM ([1]; 25°C, pH 6.5): 62.8 ± 0.1%

SMILES: COc1ccc(C=CC(=O)c2ccc(NS(=O)(=O)c3ccc4oc(=O)ccc4c3)cc2)cc1 [Compound 5c, N-(4-(3-(4-methoxyphenyl)acryloyl)phenyl)-2-oxo-2H-chromene-6-sulfonamide]
inhibition at 10 µM ([1]; 25°C, pH 6.5): 67%

SMILES: COc1ccc(C=CC(=O)c2ccc(NS(=O)(=O)c3ccc4oc(=O)ccc4c3)cc2)c(OC)c1 [Compound 5d, N-(4-(3-(2,4-dimethoxyphenyl)acryloyl)phenyl)-2-oxo-2H-chromene-6-sulfonamide]
inhibition at 10 µM ([1]; 25°C, pH 6.5): 59.3 ± 0.1%

SMILES: O=[N+]([O-])c1ccc(S(=O)(=O)Nc2ccc3c(c2)CC(Cc2ccc(Cl)cc2)=C3)cc1 [compound III]
IC50 [5]: 10.2 µM

SMILES: C/C(=N\Nc1nc(-c2ccccc2)cs1)c1ccc(NS(=O)(=O)c2ccc3oc(=O)ccc3c2)cc1 [compound II]
IC50 [6]: 3.48 ± 0.28 µM
